This assay addresses Chaperone protein DnaK (Escherichia coli (strain K12)) (UniProt P0A6Y8). As to the kind of experiment: E. coli DnaK SBD ligand binding – biophysical, NMR, chaperone (AID 1033). The settings on record: Purified DnaK SBD.

Consider 45 molecules from PubChem BioAssay AID1033 (Sanford-Burnham Center for Chemical Genomics, 2008).

The source made the active and inactive calls. The rule behind the calls is not given here. Residues, ends and D or L forms follow the SMILES beside them.

Chaperone protein DnaK (Escherichia coli (strain K12)), sequence (P0A6Y8 whole entry, looked up): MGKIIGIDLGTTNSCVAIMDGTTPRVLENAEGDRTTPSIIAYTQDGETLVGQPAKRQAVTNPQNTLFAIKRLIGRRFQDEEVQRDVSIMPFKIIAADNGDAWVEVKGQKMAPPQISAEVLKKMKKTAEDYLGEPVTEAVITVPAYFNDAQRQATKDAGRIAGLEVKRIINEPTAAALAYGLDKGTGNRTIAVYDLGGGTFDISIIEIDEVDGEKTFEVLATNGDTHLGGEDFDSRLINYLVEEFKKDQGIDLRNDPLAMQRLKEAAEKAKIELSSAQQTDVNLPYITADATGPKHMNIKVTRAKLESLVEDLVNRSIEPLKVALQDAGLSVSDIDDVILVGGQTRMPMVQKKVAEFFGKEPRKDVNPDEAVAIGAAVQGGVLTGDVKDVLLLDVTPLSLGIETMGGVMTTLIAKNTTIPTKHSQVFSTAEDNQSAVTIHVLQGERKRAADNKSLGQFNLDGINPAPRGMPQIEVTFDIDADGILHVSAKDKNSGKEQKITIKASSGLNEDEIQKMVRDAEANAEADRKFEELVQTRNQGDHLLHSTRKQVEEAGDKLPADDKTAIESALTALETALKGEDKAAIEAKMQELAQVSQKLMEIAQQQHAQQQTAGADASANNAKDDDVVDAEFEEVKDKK

In the case of `N=C1/C(=C\c2ccccc2)C(=O)N=C2SC=NN12`, the Kd is > 4 mM (inactive). For `O=C(c1cc(-c2ccccc2)on1)N1CCCC1`, the Kd is > 4 mM (inactive). `Cc1noc(C)c1C(=O)NC1=NCCS1`: the Kd is > 4 mM (inactive). For the molecule `N#CC(O[C@@H]1O[C@H](CO[C@@H]2O[C@H](CO)[C@@H](O)[C@H](O)[C@H]2O)[C@@H](O)[C@H](O)[C@H]1O)c1ccccc1` (stereo not given in full), the Kd was > 4 mM (inactive). In the case of `Cn1c(O)c(C=NCC2CCNCC2)c(=O)n(C)c1=O` it was > 4 mM (inactive); in that of `CC1(C)NC(=O)N(CN2CCOCC2)C1=O`, > 4 mM (inactive). With `Nc1nc(-c2ccc(Cl)cc2)nn1C(=O)c1cccnc1`, the Kd was > 4 mM (inactive). For `CC(C)c1ccccc1NC(=O)c1cnccn1` the value was > 4 mM (inactive).

Regarding `Cn1c(=O)n(C)c2cc(C(N)=O)ccc21`, the Kd was > 4 mM (inactive). As for `N#Cc1cc(-c2ccccc2)oc1N`, the Kd was > 4 mM (inactive). In the case of `OCc1cccc2c1OCO2` it was > 4 mM (inactive).

As for `O=S(=O)(c1ccc(F)c(Cl)c1)N1CCCC1`, the Kd was > 4 mM (inactive). For `N#CCCn1ccnc1-c1ccccc1` the value was > 4 mM (inactive).

For the molecule `O=C(O)Cn1cnc2ccccc2c1=O`, the Kd is > 4 mM (inactive). In the case of `CC(=O)c1cccc(NC(=O)Nc2c(C)nn(C)c2C)c1` it was > 4 mM (inactive); in that of `COc1cc([C@@H]2c3cc4c(cc3[C@H](OC(C)=O)[C@H]3COC(=O)[C@@H]23)OCO4)cc(OC)c1OC`, > 4 mM (inactive); in that of `O=C(O)CN1C(=O)c2ccc(C(=O)O)cc2C1=O`, > 4 mM (inactive). For `COc1ccc(-c2cc(=O)c3ccccc3o2)cc1OC` the value was > 4 mM (inactive); for `O=C(Nc1cccc(C(F)(F)F)c1)c1cccnc1`, > 4 mM (inactive).

`O=c1c[n+]([O-])c2ccccc2n1OCc1ccccn1`: the Kd is > 4 mM (inactive).

Take `Cn1c(CN)nc2ccccc21`: the Kd was > 4 mM (inactive).

For `Cc1occc1C(=O)Nc1ccc(C(N)=O)cc1`, the Kd is > 4 mM (inactive).

For the molecule `CC(=O)OCC(=O)[C@@]1(O)CCC2C3CC[C@@H]4C[C@H](O)CC[C@]4(C)C3C(=O)C[C@@]21C` (stereo not given in full), the Kd was > 4 mM (inactive).

In the case of `O=C(O)c1csc2ccccc12`, the Kd was > 4 mM (inactive). For the molecule `CC(O)(C(=O)O)c1ccccc1` (stereo not given), the Kd was > 4 mM (inactive).

On to `NCc1ccc2c(c1)OCCO2`, for which the Kd was > 4 mM (inactive). With `O=C(Nc1nc2c(s1)CCCC2)c1cccnc1`, the Kd was > 4 mM (inactive). For `O=C(Nc1nccs1)c1ccc(=O)[nH]n1` the value was > 4 mM (inactive); for `O=S(=O)(c1cccc(Cl)c1)N1CCCC1`, > 4 mM (inactive); for `S=C=NCc1ccccc1`, > 4 mM (inactive).

With `Nc1nc2ccc(C(=O)O)cc2s1`, the Kd was > 4 mM (inactive). For `NC(=O)CC1Nc2cccc3cccc(c23)NC1=O` (stereo not given) the value was > 4 mM (inactive); for `Cc1nnc2sc(-c3csc4c3CCCC4)nn12`, > 4 mM (inactive). With `CC1CCCN(C/C(O)=C(\C#N)c2nc3ccccc3[nH]2)C1` (stereo not given), the Kd was > 4 mM (inactive). `CC(=O)N[C@@H](CC(=O)O)C(=O)N[C@@H](CCC(=O)O)C(=O)O` (Ac-Asp-Glu-OH): the Kd is > 4 mM (inactive). For `Nc1cc(=O)[nH]c(SCC(=O)NC2CCCCC2)n1` the value was > 4 mM (inactive); for `CCCCN1C(=O)N(C)C2NC(=O)NC21` (stereo not given), > 4 mM (inactive). For `NC(=O)CSc1ccc2nnc(-c3ccccc3)n2n1` the value was > 4 mM (inactive); for `O=C1NC(=O)C(C(=S)Nc2ccccc2)C(=O)N1`, > 4 mM (inactive). For the molecule `c1ccc(NCc2nc(-c3ccccc3)no2)cc1`, the Kd was > 4 mM (inactive). In the case of `CN1CCn2c1nc(N1CCCCC1)nc2=O` it was > 4 mM (inactive). For `CSc1ccn(CCC(=O)O)c(=O)n1` the value was > 4 mM (inactive); for `O=C1CSC(=O)N1c1cccc(O)c1`, > 4 mM (inactive). As to `O=c1cc(O)nc(SCc2ccccc2)[nH]1`, the Kd is > 4 mM (inactive). In the case of `Cc1nnc(N2CCN(c3ccccc3)CC2)[nH]c1=O` it was > 4 mM (inactive).
